# Test results: patent US10745715B2, “Method and means for purifying retroviral vectors” (UCL BUSINESS PLC, priority 2014, dated 2020)
# No end group written: not given here.
# Legend:
# NT-293T cells = format: cell-based, human
# Streptavidin [1] = target: T1, Streptavidin (Streptomyces avidinii, UniProt P22629); test: Streptavidin-APC staining of HEK 293T cells transfected with tag constructs, flow cytometry; format: cell-based; details: 48 hrs post-transfection
# Procedure: A. Schematic diagram of the amino acid sequences of the six Streptavidin-binding tags on a CD8 stalk. These constructs co-express the green fluorescent protein (eGFP) via an internal ribosome entry sequence (IRES) downstream of the first open reading frames. B. The constructs were transfected into HEK 293T cells and stained with Streptavidin-APC 48 hours post-transfection and analysed by flow-cytometry. Binding of streptavidin (y-axis) is plotted against eGFP signal.
# FIG. 3: Transfection of 293T cells with StreptagII, Flankedccstreptag and ccstretag epitopes in three different formats shown in FIG. 2. 293T cells were also transfected with an irrelevant protein (HA1-TCR beta) co-expressed with eGFP as a negative control. […] Tags were expressed on either a CD8 stalk, a GPI anchor (×1) with one open reading frame or with a GPI anchor (×2) with two copies of the open reading frame. 293T cells transfected with the tagging proteins were stained with Streptavidin APC. The cells were all analysed by flow-cytometry and Streptavidin APC binding (y-axis) is plotted against eGFP signal (x-axis).
# An expression construct coding for a signal peptide attached to the amino terminal of theses tags was generated. In addition, the carboxy terminal of these peptide tags was attached to the CD8 stalk, CD8 transmembrane domain and a short part of the CD8 endodomain sufficient to anchor the protein to the membrane. To test their binding to streptavidin, HEK 293T cells were transfected with each construct individually and 48 hrs post-transfection cells were harvested and stained with Streptavidin conjugated to the fluorophore Allophycocyanin (APC) (FIG. 1B).
# The optimal format to express these tags on the cell surface for streptavidin binding was then investigated. Additional plasmids were constructed where these tags are expressed on a GPI anchor with one copy of the tags' open reading frames and GPI anchor with two copies of the open reading frames separated by a CD8-based linker (the annotated amino acid sequences of these constructs are depicted in FIG. 2). The binding of these tags was compared with that of the original constructs where the epitopes were placed on a CD8 stalk.
# To test their binding to Streptavidin, HEK 293T cells were transiently transfected with the constructs and stained 48 hrs post-transfection with Streptavidin-APC (FIG. 3).
# K562 cells [2] = test: Sorting of K562 cells expressing flankedccstreptag, RQR8, GST or H6 tags with their respective beads; format: cell-based; details: for eGFP positive cells in the flow-through fraction / eGFP positive cells in the sorted fraction: K562, respective beads, 12 days post sorting; for eGFP positive cells, pre-sorted population: retrovirally transduced K562 before sorting
# Procedure: K562 cells were retrovirally transduced with the four constructs individually. Subsequently cell populations were sorted with their respective beads as per manufacturer protocol. Protein-A Dynabeads were previously incubated with clinical grade human-rituximab over-night at 4 C and washed 5× with PBS to remove any unbound rituximab before adding it to the cells. Sorted fractions were collected as well as the flow through for all sorting. Fractions were assessed for positive cells based on eGFP expression by flow cytometery with a blank channel to account for auto fluorescence from dead cells.
# The efficiencies of the different tags (GST, RQR8 and His-tag) at purifying lentiviral particles from cellular media, was tested using the approach previously described for flankcedccstreptag (see Example 2), i.e. by sorting K562 cells expressing these tags on their surface. K562 cells were retrovirally transduced with flankedccstreptag, GST, RQR8 and H6 epitopes separately (FIG. 8, Pre-sorted column). Transduced cells represented a minority of the total population based on eGFP expression; therefore cells were not mixed with NT-K562 cells. Populations expressing flankedccstreptag at 10.5%, RQR8 at 9.75%, GST at 22.7% and H6 […] were thereafter sorted with Streptavidin Dynabeads, human rituximab previously incubated with protein-A bead, Glutathione magnetic beads and His-tag Dynabeads respectively.
# Collected fractions were assessed for positive cells 12 days-post sorting. […] Moreover, K562 cells expressing GST epitope were successfully purified from pre-sorting population with 91% eGFP positive cells present in the sorted fraction. […] Conversely, K562 expressing H6 sorting was less successful as only 26.1% of cells in the sorted fraction were eGFP positive while 71.1% of cells were eGFP negative. Additionally, 59.2% eGFP positive cells were in the flow-through. The GST and RQR8 tags therefore show the best activity with regard to purifying viral particles from cellular supernatant in the same manner as flankcedccstreptag epitope.
# Streptavidin [3] = target: T1, Streptavidin; details: biotin mimicking peptide binding streptavidin; read-out: affinity; cited from earlier work
# K562 cells [4] = test: Sorting of K562 cells expressing Flankedccstreptag formats with streptavidin beads; format: cell-based
# Procedure: Transduced K562 were close to 100% positive for the transgenes after transduction. Positive cells were mixed with non-transduced (NT) K562 pre-sorting. The mixture was incubated with both streptavidin dynabeads (Life technologies, Cat. No. 65601) and streptavidin-microbeads (Miltenyi, Cat. No. 130-048-101) as per manufacturer protocol. The sorted cellular fraction was collected as well as flow-through fraction for both protocols. Sorting was assessed by streptavidin-APC staining and for eGFP positive cell populations 9 days post sorting by flow cytometry.
# To establish that the two versions of Flankedccstreptag are able to purify lentivirus from cellular supernatant, an initial experiment was carried out involving sorting of K562 cells expressing these tags on their surface using streptavidin beads. We reasoned that if the tags could attach to a streptavidin matrix while expressed on cells with sufficient stability to allow sorting of expressing cells, they should be suitable for lentiviral capture too.
# K562 cells were retrovirally transduced to express the two tags and transduction efficiencies were determined by eGFP expression using flow cytometry (FIG. 4 Transduced K562 plot). Subsequently, transduced cells were mixed with non-transduced K562 to assess the efficiency of sorting using two streptavidin-beads sourced from Life technologies (Dynabeads) and Miltenyi (Microbeads). […]
# T1 sequence (P22629 25-183): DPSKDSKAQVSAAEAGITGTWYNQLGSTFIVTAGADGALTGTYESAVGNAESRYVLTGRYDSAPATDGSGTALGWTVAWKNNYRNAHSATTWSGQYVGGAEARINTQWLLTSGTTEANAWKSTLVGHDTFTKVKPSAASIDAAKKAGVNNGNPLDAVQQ
substance,measurement,setting,value
"Flankedccstreptag: biotin mimic tag AECHPQGPPCIEGRK (SEQ ID NO: 2) expressed at the cell surface as tagging protein (Biotin mimicking peptide, flankedccstreptag)","transduction efficiency, neat supernatant",NT-293T cells,high transduction efficiencies
same,binding to Streptavidin-APC,Streptavidin [1]; tag on CD8 stalk,successfully bound
same,binding to Streptavidin-APC,"Streptavidin [1]; tag on GPI anchor, two open reading frames (x2)",higher binding efficiency than StreptagII and ccstreptag
same,eGFP positive cells in the flow-through fraction,K562 cells [2],absence of eGFP positive cells
same,eGFP positive cells in the sorted fraction,K562 cells [2],93.6%
same,"eGFP positive cells, pre-sorted population",K562 cells [2],10.5%
"RQR8: tag with rituximab-binding and Qbend10 epitopes on CD8 stalk, SEQ ID NO: 21","transduction efficiency, neat supernatant",NT-293T cells,high transduction efficiencies
same,eGFP positive cells in the flow-through fraction,K562 cells [2],absence of eGFP positive cells
same,eGFP positive cells in the sorted fraction,K562 cells [2],89.4%
same,"eGFP positive cells, pre-sorted population",K562 cells [2],9.75%
"biotin mimicking peptide DVEAWLDERVPLVET (SEQ ID NO: 35) (Biotin mimicking peptide, long nanotag)",binding to Streptavidin-APC,Streptavidin [1]; tag on CD8 stalk,did not exhibit any binding
same,Kd,Streptavidin [3],3.6 nM
"biotin mimicking peptide DVEAWLGAR (SEQ ID NO: 36) (Biotin mimicking peptide, short nanotag)",binding to Streptavidin-APC,Streptavidin [1]; tag on CD8 stalk,did not exhibit any binding
same,Kd,Streptavidin [3],17 nM
biotin mimicking peptide WSHPQFEK (SEQ ID NO: 1) [streptagll],binding to Streptavidin-APC,Streptavidin [1]; tag on CD8 stalk,successfully bound
same,Kd,Streptavidin [3],72000 nM
disulphide constrained biotin mimicking peptide CHPQGPPC (SEQ ID NO: 3) [ccstreptag],binding to Streptavidin-APC,Streptavidin [1]; tag on CD8 stalk,successfully bound
same,Kd,Streptavidin [3],230 nM
"flankedccstreptag-d8-x2-GPI: two Flankedccstreptag copies separated by CD8-based linker (SEQ ID NO: 5) on a GPI anchor (ECHPQGPPCIEGRKSSGGGGSPAPRPPTPAPTIASECHPQGPPCIEGRKS; cysteine pairing not given here; also: on a GPI anchor, small tags and cut ends left off)",sorting of tag-expressing K562 cells from mixture with NT K562,K562 cells [4]; streptavidin microbeads (Miltenyi),successful
same,sorting of tag-expressing K562 cells from mixture with NT K562,"K562 cells [4]; streptavidin-dynabeads (Life technologies), eGFP",successfully sorted
